ChEMBL document CHEMBL2321831, “Design, synthesis, and biological evaluations of novel 7-[7-amino-7-methyl-5-azaspiro[2.4]heptan-5-yl]-8-methoxyquinolines with potent antibacterial activity against respiratory pathogens” (J Med Chem, 2013)

Experiments:
[1] = Cmax in cynomolgus monkey serum at 5 mg/kg, po; type: ADME, organism-based, Macaca fascicularis; parameters: dose 5 mg/kg, route oral
Streptococcus pneumoniae [2] = experiment: Antibacterial activity against quinolone, penicillin-resistant Streptococcus pneumoniae 104835 after 18 hrs by microbroth dilution method; type: functional; conditions: Streptococcus pneumoniae, 104835, 18 h
[3] = Drug uptake in cynomolgus monkey serum at 10 mg/kg, iv after 5 mins; type: ADME, organism-based, Macaca fascicularis; parameters: dose 10 mg/kg, route intravenous; conditions: read-out: Drug uptake
Staphylococcus aureus [4] = experiment: Antibacterial activity against levofloxacin-resistant and methicillin-resistant Staphylococcus aureus 870307 after 18 hrs by microbroth dilution method; type: functional; conditions: Staphylococcus aureus, 870307, 18 h
Staphylococcus aureus [5] = experiment: Antibacterial activity against Staphylococcus aureus FDA 209-P after 18 hrs by microbroth dilution method; type: functional
Pseudomonas aeruginosa = experiment: Antibacterial activity against Pseudomonas aeruginosa PAO1 after 18 hrs by microbroth dilution method; type: functional; conditions: PAO1, 18 h
Streptococcus pneumoniae [6] = experiment: Antibacterial activity against penicillin-susceptible Streptococcus pneumoniae J24 after 18 hrs by microbroth dilution method; type: functional; conditions: J24, 18 h
Streptococcus pyogenes = experiment: Antibacterial activity against Streptococcus pyogenes G-36 after 18 hrs by microbroth dilution method; type: functional; conditions: G-36, 18 h
Klebsiella pneumoniae = experiment: Antibacterial activity against Klebsiella pneumoniae TYPE1 after 18 hrs by microbroth dilution method; type: functional; conditions: TYPE1, 18 h
Enterococcus faecalis = experiment: Antibacterial activity against Enterococcus faecalis ATCC 19433 after 18 hrs by microbroth dilution method; type: functional; conditions: ATCC 19433, 18 h
[7] = Cmax in Crj:CD rat serum at 5 mg/kg, po; type: ADME, organism-based; parameters: dose 5 mg/kg, route oral
Haemophilus influenzae = experiment: Antibacterial activity against Haemophilus influenzae ATCC 49247 after 18 hrs by microbroth dilution method; type: functional; conditions: ATCC 49247, 18 h
[8] = Primary phase half life in cynomolgus monkey serum at 10 mg/kg, iv; type: ADME, organism-based, Macaca fascicularis; parameters: dose 10 mg/kg, route intravenous; conditions: read-out: alphat1/2 (converted)
[9] = Drug recovery in cynomolgus monkey urine at 5 mg/kg, po after 24 hrs; type: ADME, organism-based, Macaca fascicularis; parameters: dose 5 mg/kg, route oral; conditions: read-out: Drug recovery
[10] = AUC (0 to 8 hrs) in Crj:CD rat liver at 5 mg/kg, po; type: ADME, organism-based; parameters: time < 8 hr, dose 5 mg/kg, route oral
[11] = Drug recovery in cynomolgus monkey urine at 10 mg/kg, iv after 24 hrs; type: ADME, organism-based, Macaca fascicularis; parameters: dose 10 mg/kg, route intravenous; conditions: read-out: Drug recovery
[12] = AUC (0 to 8 hrs) in Crj:CD rat serum at 5 mg/kg, po; type: ADME, organism-based; parameters: time < 8 hr, dose 5 mg/kg, route oral
[13] = system: Mycoplasmoides pneumoniae; experiment: Antibacterial activity against Mycoplasma pneumoniae 18-1 after 18 hrs by microbroth dilution method; type: functional; conditions: 18-1, 18 h
[14] = system: Staphylococcus epidermidis; experiment: Antibacterial activity against Staphylococcus epidermidis 56500 after 18 hrs by microbroth dilution method; type: functional; conditions: Staphylococcus epidermidis, 56500, 18 h
[15] = system: Mycoplasmoides pneumoniae; experiment: Antibacterial activity against Mycoplasma pneumoniae ATCC 29085 after 18 hrs by microbroth dilution method; type: functional; conditions: ATCC 29085, 18 h
[16] = AUC (0 to 8 hrs) in Crj:CD rat lung at 5 mg/kg, po; type: ADME, organism-based; parameters: time < 8 hr, dose 5 mg/kg, route oral
Bacillus subtilis = experiment: Antibacterial activity against Bacillus subtilis IID 685 after 18 hrs by microbroth dilution method; type: functional; conditions: IID 685, 18 h
[17] = Drug recovery in Crj:CD rat urine at 5 mg/kg, po after 24 hrs; type: ADME, organism-based; parameters: dose 5 mg/kg, route oral; conditions: read-out: Drug recovery
[18] = AUC (0 to 8 hrs) in Crj:CD rat kidney at 5 mg/kg, po; type: ADME, organism-based; parameters: time < 8 hr, dose 5 mg/kg, route oral
Moraxella catarrhalis = experiment: Antibacterial activity against Moraxella catarrhalis ATCC 25238 after 18 hrs by microbroth dilution method; type: functional; conditions: ATCC 25238, 18 h
hERG (KCNH2) [19] = molecular target: T1, hERG (KCNH2) (Homo sapiens, UniProt Q12809); experiment: Inhibition of human ERG expressed in CHOK1 cells at 100 uM; type: cell-based; conditions: CHO-K1 cells expressing hERG
Streptococcus pneumoniae [20] = experiment: Antibacterial activity against levofloxacin-intermediate and levofloxacin-resistant Streptococcus pneumoniae after 18 hrs by microbroth dilution method; type: functional
hERG (KCNH2) [21] = molecular target: T1, hERG (KCNH2); experiment: Inhibition of human ERG expressed in CHOK1 cells at 30 uM; type: cell-based; conditions: CHO-K1 cells expressing hERG
[22] = AUC (0 to 8 hrs) in cynomolgus monkey serum at 10 mg/kg, iv; type: ADME, organism-based, Macaca fascicularis, Plasma; parameters: time < 8 hr, dose 10 mg/kg, route intravenous
[23] = Plasma protein binding in human at 10 ug/mL by ultrafiltration method; type: ADME, cell-free; conditions: read-out: PPB (converted)
Chlamydia pneumoniae [24] = experiment: Antibacterial activity against Chlamydophila pneumoniae AR39 after 18 hrs by microbroth dilution method; type: functional; conditions: AR39, 18 h
[25] = AUC (0 to 24 hrs) in cynomolgus monkey serum at 5 mg/kg, po; type: ADME, organism-based, Macaca fascicularis, Plasma; parameters: time < 24 hr, dose 5 mg/kg, route oral
Chlamydia pneumoniae [26] = experiment: Antibacterial activity against Chlamydophila pneumoniae CM-1 after 18 hrs by microbroth dilution method; type: functional; conditions: CM-1, 18 h
[27] = Half life in cynomolgus monkey serum at 5 mg/kg, po; type: ADME, organism-based, Macaca fascicularis; parameters: dose 5 mg/kg, route oral

T1 sequence (Q12809 whole entry): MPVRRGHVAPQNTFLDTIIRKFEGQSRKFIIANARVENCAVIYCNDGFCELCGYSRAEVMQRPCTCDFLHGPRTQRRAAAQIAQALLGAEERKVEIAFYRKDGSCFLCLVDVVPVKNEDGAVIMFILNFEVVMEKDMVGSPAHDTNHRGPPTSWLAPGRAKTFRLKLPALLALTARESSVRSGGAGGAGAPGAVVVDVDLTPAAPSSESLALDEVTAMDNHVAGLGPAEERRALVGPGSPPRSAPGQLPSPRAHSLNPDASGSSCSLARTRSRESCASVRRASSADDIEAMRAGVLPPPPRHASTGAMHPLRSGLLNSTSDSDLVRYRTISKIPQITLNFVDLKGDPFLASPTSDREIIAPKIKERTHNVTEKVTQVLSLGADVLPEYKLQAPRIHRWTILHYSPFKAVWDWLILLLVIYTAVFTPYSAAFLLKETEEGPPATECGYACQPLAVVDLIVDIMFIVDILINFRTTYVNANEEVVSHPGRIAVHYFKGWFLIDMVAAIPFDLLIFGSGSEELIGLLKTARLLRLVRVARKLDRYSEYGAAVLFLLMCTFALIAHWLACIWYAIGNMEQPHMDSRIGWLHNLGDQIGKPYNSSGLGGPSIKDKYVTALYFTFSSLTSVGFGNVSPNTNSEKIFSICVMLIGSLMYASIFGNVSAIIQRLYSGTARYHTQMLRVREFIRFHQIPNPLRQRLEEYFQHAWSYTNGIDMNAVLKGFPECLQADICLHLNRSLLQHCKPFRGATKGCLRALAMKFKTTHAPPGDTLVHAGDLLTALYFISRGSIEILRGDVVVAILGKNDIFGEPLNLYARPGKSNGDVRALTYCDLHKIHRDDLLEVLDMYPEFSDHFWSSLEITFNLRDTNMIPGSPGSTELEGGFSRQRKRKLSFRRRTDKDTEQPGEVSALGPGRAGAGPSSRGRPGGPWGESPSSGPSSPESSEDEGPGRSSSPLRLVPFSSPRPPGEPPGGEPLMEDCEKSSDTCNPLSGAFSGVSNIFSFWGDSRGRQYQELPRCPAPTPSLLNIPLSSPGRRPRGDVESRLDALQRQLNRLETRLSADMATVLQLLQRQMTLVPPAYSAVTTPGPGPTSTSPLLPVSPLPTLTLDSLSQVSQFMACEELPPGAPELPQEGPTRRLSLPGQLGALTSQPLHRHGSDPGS

C[C@H]1COc2c(N3CCN(C)CC3)c(F)cc3c(=O)c(C(=O)O)cn1c23.C[C@H]1COc2c(N3CCN(C)CC3)c(F)cc3c(=O)c(C(=O)O)cn1c23.O [LEVOFLOXACIN]
Cmax [1]: 1920 ng/mL | MIC (Streptococcus pneumoniae [2]): > 6.25 µg/mL | concentration at 5 min [3]: 4170 ng/mL | MIC (Staphylococcus aureus [4]): > 6.25 µg/mL | MIC (Staphylococcus aureus [5]): 0.1 µg/mL | MIC (Pseudomonas aeruginosa): 0.39 µg/mL | MIC (Streptococcus pneumoniae [6]): 0.78 µg/mL | MIC (Streptococcus pyogenes): 0.78 µg/mL | MIC (Klebsiella pneumoniae): 0.05 µg/mL | MIC (Enterococcus faecalis): 0.78 µg/mL | Cmax [7]: 1470 ng/mL | MIC (Haemophilus influenzae): 0.012 µg/mL | half-life [8]: 3.2 h | dose excreted at 24 h [9]: 73.9% | AUC(0-t) at 8 h [10]: 16400 ng·h/mL | dose excreted at 24 h [11]: 80.7% | AUC(0-t) at 8 h [12]: 3410 ng·h/mL | MIC [13]: 2 µg/mL | MIC [14]: 0.39 µg/mL | MIC [15]: 1 µg/mL | AUC(0-t) at 8 h [16]: 5570 ng·h/mL | MIC (Bacillus subtilis): 1.56 µg/mL | dose excreted at 24 h [17]: 80% | AUC(0-t) at 8 h [18]: 19300 ng·h/mL | MIC (Moraxella catarrhalis): 0.025 µg/mL | inhibition at 100 µM (hERG (KCNH2) [19]): 4.2% | MIC50 (Streptococcus pneumoniae [20]): 8 µg/mL | MIC80 (Streptococcus pneumoniae [20]): 16 µg/mL | MIC90 (Streptococcus pneumoniae [20]): 16 µg/mL | inhibition at 30 µM (hERG (KCNH2) [21]): -0.9% | AUC(0-t) at 8 h [22]: 15500 ng·h/mL | fraction unbound at 10 ug/mL [23]: 0.678 | MIC (Chlamydia pneumoniae [24]): 0.5 µg/mL | AUC(0-t) at 24 h [25]: 15200 ng·h/mL | MIC (Chlamydia pneumoniae [26]): 0.5 µg/mL | half-life [27]: 3.5 h
